Assay results reported in ChEMBL document CHEMBL1201862, “PubChem BioAssay data set” (2004).
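Cultured in 96-well plates, cells were exposed to test compound for 48 hours across five concentrations. GI50 marks 50% less growth.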 Active and inactive are the calls of the source. Rule as the data show it: active = GI50 up to about 1.1 µM and inactive = higher.

Legend:
Experiment in all cases: DTP human tumour cell line panel, 48 h
MDA-N = tested on: MDA-N
SK-MEL-28 = tested on: SK-MEL-28
786-0 = tested on: 786-0
DU-145 = tested on: DU-145
SK-MEL-5 = tested on: SK-MEL-5
A498 = tested on: A498
OVCAR-3 = tested on: OVCAR-3
SNB-19 = tested on: SNB-19
SF-295 = tested on: SF-295
K562 = tested on: K562
U-251 = tested on: U-251
T47D = tested on: T47D
TK-10 = tested on: TK-10
SF-268 = tested on: SF-268
MCF7 = tested on: MCF7
HL-60 = tested on: HL-60
HT-29 = tested on: HT-29
A549 = tested on: A549
UACC-62 = tested on: UACC-62
LOX IMVI = tested on: LOX IMVI
RPMI-8226 = tested on: RPMI-8226
RXF 393 = tested on: RXF 393
MOLT-4 = tested on: MOLT-4
COLO 205 = tested on: COLO 205
OVCAR-8 = tested on: OVCAR-8
MDA-MB-231 = tested on: MDA-MB-231
OVCAR-4 = tested on: OVCAR-4
ACHN = tested on: ACHN
NCI-H23 = tested on: NCI-H23
NCI-H460 = tested on: NCI-H460
SF-539 = tested on: SF-539
HCC 2998 = tested on: HCC 2998
HCT-116 = tested on: HCT-116
CAKI-1 = tested on: CAKI-1
SN12C = tested on: SN12C
Malme-3M = tested on: Malme-3M
CCRF-CEM = tested on: CCRF-CEM
IGROV-1 = tested on: IGROV-1
BT-549 = tested on: BT-549
UACC-257 = tested on: UACC-257
PC-3 = tested on: PC-3
Hs-578T = tested on: Hs-578T
OVCAR-5 = tested on: OVCAR-5
MDA-MB-435 = tested on: MDA-MB-435
NCI-H226 = tested on: NCI-H226
SNB-75 = tested on: SNB-75
EKVX = tested on: EKVX
HCT-15 = tested on: HCT-15
SK-MEL-2 = tested on: SK-MEL-2
UO-31 = tested on: UO-31
HOP-62 = tested on: HOP-62
HOP-92 = tested on: HOP-92
NCI/ADR-RES = tested on: NCI/ADR-RES
M14 = tested on: M14
KM12 = tested on: KM12
SW-620 = tested on: SW-620
SK-OV-3 = tested on: SK-OV-3
NCI-H522 = tested on: NCI-H522

Cc1cc2oc(=N)c(C#N)c(C)c2cc1C
GI50 (MDA-N): 96.8 µM (inactive)
GI50 (SK-MEL-28): > 100 µM (inactive)
GI50 (786-0): 96.4 µM (inactive)
GI50 (DU-145): 84.7 µM (inactive)
GI50 (SK-MEL-5): 30.7 µM (inactive)
GI50 (A498): > 100 µM (inactive)
GI50 (OVCAR-3): 70.1 µM (inactive)
GI50 (SNB-19): 83.2 µM (inactive)
GI50 (SF-295): 44.6 µM (inactive)
GI50 (K562): 24.5 µM (inactive)
GI50 (U-251): 65.6 µM (inactive)
GI50 (T47D): 40.6 µM (inactive)
GI50 (TK-10): 67.3 µM (inactive)
GI50 (SF-268): 44 µM (inactive)
GI50 (MCF7): 31.9 µM (inactive)
GI50 (HL-60): 33.4 µM (inactive)
GI50 (HT-29): 63 µM (inactive)
GI50 (A549): 48.8 µM (inactive)
GI50 (UACC-62): 47.4 µM (inactive)
GI50 (LOX IMVI): 90.2 µM (inactive)
GI50 (RPMI-8226): 42.7 µM (inactive)
GI50 (RXF 393): 24.3 µM (inactive)
GI50 (MOLT-4): 2.5 µM (inactive)
GI50 (COLO 205): 48.1 µM (inactive)
GI50 (OVCAR-8): 72.3 µM (inactive)
GI50 (MDA-MB-231): > 100 µM (inactive)
GI50 (OVCAR-4): 56.2 µM (inactive)
GI50 (ACHN): 38.5 µM (inactive)
GI50 (NCI-H23): 31.3 µM (inactive)
GI50 (NCI-H460): 46.7 µM (inactive)
GI50 (SF-539): 62.8 µM (inactive)
GI50 (HCC 2998): 52.5 µM (inactive)
GI50 (HCT-116): 53.1 µM (inactive)
GI50 (CAKI-1): 57.8 µM (inactive)
GI50 (SN12C): 96.2 µM (inactive)
GI50 (Malme-3M): 43 µM (inactive)
GI50 (CCRF-CEM): 36.6 µM (inactive)
GI50 (IGROV-1): 26.5 µM (inactive)
GI50 (BT-549): 39.4 µM (inactive)
GI50 (UACC-257): > 100 µM (inactive)
GI50 (PC-3): 36.9 µM (inactive)
GI50 (Hs-578T): 26.3 µM (inactive)
GI50 (OVCAR-5): > 100 µM (inactive)
GI50 (MDA-MB-435): 51.5 µM (inactive)
GI50 (NCI-H226): 87.7 µM (inactive)
GI50 (SNB-75): 19.1 µM (inactive)
GI50 (EKVX): 30.3 µM (inactive)
GI50 (HCT-15): 42.3 µM
GI50 (SK-MEL-2): 51.8 µM (inactive)
GI50 (UO-31): 45.1 µM (inactive)
GI50 (HOP-62): 52 µM (inactive)
GI50 (HOP-92): 44.2 µM (inactive)
GI50 (NCI/ADR-RES): 55.1 µM (inactive)
GI50 (M14): 67.6 µM (inactive)
GI50 (KM12): 39.9 µM (inactive)
GI50 (SW-620): 67.6 µM (inactive)
GI50 (SK-OV-3): 35.2 µM (inactive)

COc1ccc(C(=O)N(C(=S)OCCOc2ccccc2)c2ccccc2)cc1
GI50 (MDA-N): 35.1 µM (inactive)
GI50 (SK-MEL-28): > 100 µM (inactive)
GI50 (786-0): 47.9 µM (inactive)
GI50 (NCI-H522): 23.7 µM (inactive)
GI50 (DU-145): 37.1 µM (inactive)
GI50 (A498): 18.4 µM (inactive)
GI50 (OVCAR-3): 38 µM (inactive)
GI50 (SNB-19): 83.8 µM (inactive)
GI50 (SF-295): 29.2 µM (inactive)
GI50 (K562): 23.8 µM (inactive)
GI50 (U-251): 46.1 µM (inactive)
GI50 (T47D): 19.9 µM (inactive)
GI50 (TK-10): 61 µM (inactive)
GI50 (SF-268): 44 µM (inactive)
GI50 (MCF7): 42 µM (inactive)
GI50 (HL-60): 20.2 µM (inactive)
GI50 (HT-29): 40.4 µM (inactive)
GI50 (A549): 31.1 µM (inactive)
GI50 (UACC-62): 48 µM (inactive)
GI50 (LOX IMVI): 52 µM (inactive)
GI50 (RPMI-8226): 14.6 µM (inactive)
GI50 (RXF 393): 26.5 µM (inactive)
GI50 (MOLT-4): 19.7 µM (inactive)
GI50 (COLO 205): 30.5 µM (inactive)
GI50 (OVCAR-8): 52.2 µM (inactive)
GI50 (MDA-MB-231): 86.1 µM (inactive)
GI50 (OVCAR-4): 24.5 µM (inactive)
GI50 (ACHN): 44.9 µM (inactive)
GI50 (NCI-H23): 32.4 µM (inactive)
GI50 (NCI-H460): 34.1 µM (inactive)
GI50 (SF-539): 40.3 µM (inactive)
GI50 (HCC 2998): 34.4 µM (inactive)
GI50 (HCT-116): 29.2 µM (inactive)
GI50 (CAKI-1): 47 µM (inactive)
GI50 (SN12C): 43.8 µM (inactive)
GI50 (Malme-3M): 28.4 µM (inactive)
GI50 (CCRF-CEM): 14.9 µM (inactive)
GI50 (IGROV-1): > 100 µM (inactive)
GI50 (BT-549): 49.9 µM (inactive)
GI50 (UACC-257): 34.8 µM (inactive)
GI50 (PC-3): 35.4 µM (inactive)
GI50 (Hs-578T): 65.2 µM (inactive)
GI50 (OVCAR-5): 88.3 µM (inactive)
GI50 (MDA-MB-435): 31.7 µM (inactive)
GI50 (SNB-75): 1.63 µM (inactive)
GI50 (EKVX): 31.6 µM (inactive)
GI50 (HCT-15): 44.2 µM
GI50 (SK-MEL-2): 22.9 µM (inactive)
GI50 (UO-31): 0.0457 µM (active)
GI50 (HOP-62): 71.3 µM (inactive)
GI50 (HOP-92): 20 µM (inactive)
GI50 (NCI/ADR-RES): 37.2 µM (inactive)
GI50 (M14): 43.3 µM (inactive)
GI50 (KM12): 31.3 µM (inactive)
GI50 (SW-620): 50 µM (inactive)
GI50 (SK-OV-3): 52.7 µM (inactive)
